{"source": "PubChem BioAssay (NCI)", "assay_in_all_cases": "NCI tumour cell line growth inhibition, 48 h", "key": {"[1]": {"test_system": "M19-MEL melanoma"}, "[2]": {"test_system": "SN12K1 renal"}, "[3]": {"test_system": "DMS 273 small cell lung"}, "[4]": {"test_system": "XF 498 CNS"}, "[5]": {"test_system": "DMS 114 small cell lung"}, "[6]": {"test_system": "P388 leukemia"}, "[7]": {"test_system": "DLD-1 colon"}, "[8]": {"test_system": "HOP-18 NSCLC"}}, "note": "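48-hour exposure; five concentrations; linearly interpolated endpoints. GI50: concentration for 50% inhibition of growth. TGI marks complete inhibition of growth.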"}
{"smiles": "CSCSCC(CO)NC(=O)/C(C)=C\\c1c(C)[nH]c(=O)[nH]c1=O", "note": "(centres undefined)", "values": [{"measurement": "TGI", "setting": "[1]", "result": "> 250", "unit": "µM"}, {"measurement": "TGI", "setting": "[2]", "result": "> 250", "unit": "µM"}, {"measurement": "TGI", "setting": "[3]", "result": "> 250", "unit": "µM"}, {"measurement": "TGI", "setting": "[4]", "result": "> 224", "unit": "µM"}, {"measurement": "TGI", "setting": "[5]", "result": "> 250", "unit": "µM"}, {"measurement": "TGI", "setting": "[6]", "result": "> 250", "unit": "µM"}, {"measurement": "TGI", "setting": "[7]", "result": "> 250", "unit": "µM"}]}
{"smiles": "Cn1c2ccccc2c(=O)c2c(O)cc3c(c21)C=CC(C)(C)O3", "values": [{"measurement": "TGI", "setting": "[1]", "result": "> 25", "unit": "µM"}, {"measurement": "TGI", "setting": "[2]", "result": "> 25", "unit": "µM"}, {"measurement": "TGI", "setting": "[3]", "result": "> 25", "unit": "µM"}, {"measurement": "TGI", "setting": "[4]", "result": "> 25", "unit": "µM"}, {"measurement": "TGI", "setting": "[5]", "result": "> 25", "unit": "µM"}, {"measurement": "TGI", "setting": "[6]", "result": "> 25", "unit": "µM"}, {"measurement": "TGI", "setting": "[7]", "result": "> 25", "unit": "µM"}, {"measurement": "TGI", "setting": "[8]", "result": "> 25", "unit": "µM"}]}
{"smiles": "CC(C)C1NC(=O)CC(c2ccccc2)N(N=O)C1c1ccccc1", "note": "(centres undefined)", "values": [{"measurement": "TGI", "setting": "[1]", "result": "> 100", "unit": "µM"}, {"measurement": "TGI", "setting": "[2]", "result": "> 100", "unit": "µM"}, {"measurement": "TGI", "setting": "[3]", "result": "> 100", "unit": "µM"}, {"measurement": "TGI", "setting": "[4]", "result": "> 100", "unit": "µM"}, {"measurement": "TGI", "setting": "[5]", "result": "> 100", "unit": "µM"}, {"measurement": "TGI", "setting": "[6]", "result": "> 100", "unit": "µM"}, {"measurement": "TGI", "setting": "[7]", "result": "> 100", "unit": "µM"}, {"measurement": "TGI", "setting": "[8]", "result": "> 100", "unit": "µM"}]}
{"smiles": "COc1cc(C2(c3ncc[nH]3)SSSCC2O)ccc1O", "note": "(centres undefined)", "values": [{"measurement": "TGI", "setting": "[1]", "result": "> 39.6", "unit": "µM"}, {"measurement": "TGI", "setting": "[2]", "result": "> 55.4", "unit": "µM"}, {"measurement": "TGI", "setting": "[3]", "result": "> 100", "unit": "µM"}, {"measurement": "TGI", "setting": "[4]", "result": "> 100", "unit": "µM"}, {"measurement": "TGI", "setting": "[5]", "result": 52.2, "unit": "µM"}, {"measurement": "TGI", "setting": "[6]", "result": "> 48.1", "unit": "µM"}, {"measurement": "TGI", "setting": "[7]", "result": "> 100", "unit": "µM"}, {"measurement": "TGI", "setting": "[8]", "result": "> 100", "unit": "µM"}]}
{"smiles": "C/C(=N\\NC(=O)c1ccccc1O)c1cccc(/C(C)=N/NC(=O)c2ccccc2O)n1.O=S(=O)([O-])[O-].[Fe+2]", "values": [{"measurement": "GI50", "setting": "[1]", "result": "> 100", "unit": "µM"}, {"measurement": "TGI", "setting": "[1]", "result": "> 100", "unit": "µM"}, {"measurement": "GI50", "setting": "[3]", "result": 46.4, "unit": "µM"}, {"measurement": "TGI", "setting": "[3]", "result": "> 100", "unit": "µM"}, {"measurement": "TGI", "setting": "[4]", "result": "> 100", "unit": "µM"}, {"measurement": "TGI", "setting": "[5]", "result": "> 100", "unit": "µM"}, {"measurement": "GI50", "setting": "[7]", "result": "> 100", "unit": "µM"}, {"measurement": "TGI", "setting": "[7]", "result": "> 100", "unit": "µM"}]}
